Experimental data taken from patent US20110046039A1, “POST-EXPOSURE PROPHYLAXIS AND TREATMENT OF INFECTIONS” (priority 2007, published 2011).
Where a SMILES comes first, the peptide text is derived from it. The star is where a group is joined. Cbz = O=C(OCc1ccccc1)*; CH2F = FC*

Assays:
[1] = system: anthrax spores; design: species or system DBA/2 mice; conditions: mouse, in vivo
[2] = system: cultured macrophages; conditions: cited from earlier work
[3] = system: livers of anthrax-challenged mice; conditions: mouse, in vivo; cited from earlier work

Compound: O=C(O)c1cn(C2CC2)c2cc(N3CCNCC3)c(F)cc2c1=O [ciprofloxacin]
- animals protected ([1]; ip, 50 mg/kg): 30%

Compound: CNC(=O)[C@H]1O[C@@H](n2cnc3c(NCc4cccc(I)c4)ncnc32)[C@H](O)[C@@H]1O [IB-MECA, N^6-(3-iodobenzyl)-adenosine-5′-N-methyluronamide]
- protection of mice against post-exposure anthrax [1]: protect mice against post-exposure anthrax

Compound: COC(=O)C[C@H](NC(=O)[C@H](C)NC(=O)[C@@H](NC(=O)OCc1ccccc1)C(C)C)C(=O)CF [z-VAD, z-Val-Ala-Asp(OMe)-fluoromethylketone] (Cbz-Val-Ala-Asp(OMe)-CH2F)
- anti-apoptotic effect [2]: protective anti-apoptopic effect
- anti-apoptotic effect [3]: protective anti-apoptopic effect

Compound: CNC(=O)[C@H]1O[C@@H](n2cnc3c(NCc4cccc(I)c4)nc(Cl)nc32)[C@H](O)[C@@H]1O [Cl-IB-MECA, 2-chloro-N^6-(3-iodobenzyl)-adenosine-5′-N-methyluronamide]
- protection of exposed animals [1]: 40%
- protection of mice against post-exposure anthrax [1]: protect mice against post-exposure anthrax
